Biological target: T1, human M1 receptor (hCHRM1) (Homo sapiens, UniProt P11229)
T1 construct: expressed in transfected cells; host or cells: CHO-K1
T1 sequence (P11229 1-460): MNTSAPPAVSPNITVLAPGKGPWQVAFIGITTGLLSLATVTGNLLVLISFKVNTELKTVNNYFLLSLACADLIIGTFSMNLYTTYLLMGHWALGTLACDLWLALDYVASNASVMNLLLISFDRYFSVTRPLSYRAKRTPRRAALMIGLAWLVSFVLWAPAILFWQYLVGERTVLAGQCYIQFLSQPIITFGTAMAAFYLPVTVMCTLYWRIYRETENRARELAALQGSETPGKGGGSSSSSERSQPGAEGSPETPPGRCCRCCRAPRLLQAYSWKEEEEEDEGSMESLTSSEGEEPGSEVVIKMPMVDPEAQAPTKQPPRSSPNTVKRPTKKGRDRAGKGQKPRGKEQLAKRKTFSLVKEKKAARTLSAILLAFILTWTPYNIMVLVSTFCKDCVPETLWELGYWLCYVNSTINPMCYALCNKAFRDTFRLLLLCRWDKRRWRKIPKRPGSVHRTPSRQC
Test: Measurement of M1 receptor positive allosteric modulator (M1PAM) activity, calcium fluorescence (FLIPRtetra) in CHO-K1 cells in the presence of acetylcholine at EC20
Format: cell-based
Settings: in the presence of acetylcholine at EC20 (final 0.6 nM), CHO-K1 cells expressing hCHRM1; for EC50: inflection point of M1PAM activity, read-out: IP value; for activity (%) at 10 μM: test compound 10 μM
How it was run: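 PAM activity was measured as calcium flux by FLIPRtetra over 1 min after co-addition of compound and EC20 acetylcholine (final 0.6 nM) to Fluo-4-loaded hCHRM1 CHO-K1 cells. The response was scaled between DMSO (0%) and 1 μM acetylcholine (100%), and the inflection point of the concentration curve gives the IP value.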

Row | Structure (SMILES) | EC50 [nM] | activity (%) at 10 μM [%]
1 | O=C1c2c(ccnc2OCC2CCCO2)CN1Cc1ccc(-c2cnn(CC(F)(F)F)c2)cc1 (stereo not drawn) [Example 287, 4-((tetrahydrofuran-2-yl)methoxy)-2-(4-(1-(2,2,2-trifluoroethyl)-1H-pyrazol-4-yl)benzyl)-1,2-dihydro-3H-pyrrolo[3,4-c]pyridin-3-one] | 10 | 99
2 | CNC(=O)c1ccc(CN2Cc3ccnc(Oc4ccc(Br)cc4F)c3C2=O)cc1F [Example 442, 4-((4-(4-bromo-2-fluorophenoxy)-3-oxo-1,3-dihydro-2H-pyrrolo[3,4-c]pyridin-2-yl)methyl)-2-fluoro-N-methylbenzamide] | 38 | 100
3 | Cc1ccc(Oc2nccc3c2C(=O)N(Cc2ccc(-n4cnc(C)c4)cc2)C3)c(F)c1 [Example 427, 4-(2-fluoro-4-methylphenoxy)-2-(4-(4-methyl-1H-imidazol-1-yl)benzyl)-1,2-dihydro-3H-pyrrolo[3,4-c]pyridin-3-one] | 31 | 111

Source: patent US9777005B2 (Takeda Pharmaceutical Company Limited, priority 2012, dated 2017)
